In patent US20150141438A1, “METHODS FOR DELAYING OR PREVENTING THE ONSET OF TYPE 1 DIABETES” (Pharmacyclics, Inc., priority 2013, published 2015):

How the values were obtained:
anti-insulin B cells = experiment: BTK inhibitor treatment of 125Tg/NOD mice (Ibrutinib chow); B cell subsets assessed by flow cytometry in freshly isolated organs; type: in vivo, mouse
Description: After 5-10 weeks, spleen, draining pancreatic lymph nodes, and pancreas were harvested and flow cytometry was used to analyze B cell subsets. […] Mice were 12-13 weeks old at time of analysis.
B cell subsets were assessed by flow cytometry in freshly isolated organs as outlined below.
BM was eluted from long bones, and spleens and pancreatic draining lymph nodes (PLN) were macerated with HBSS (Invitrogen) plus 10% FBS (HyClone). Red blood cells were lysed using Tris-NH4Cl. Freshly isolated pancreata were digested with 3 mL of 1 mg/mL collagenase P diluted in HBSS for 30 min at 37° C., then tissue was disrupted using an 18-gauge needle. Ice cold HBSS plus 10% FBS was immediately added to inhibit collagenase activity. Cells were directly analyzed by flow cytometry. Flow cytometry Ab reagents were reactive with B220 (6B2), IgM^a (DS-1), CD19 (1D3), CD21 (7G6), CD23 (B3B4), CD93 (AA4.1), or IgM chain-specific) (Life Technologies). Biotin N-hydroxysuccinimide ester (Sigma) was used to biotinylate human insulin (Sigma) at pH 8.0 in bicine buffer. Streptavidin reagents (BD Biosciences) were used to detect biotinylated reagents. 7AAD (BD Biosciences) was used to identify dead cells. Sample acquisition was performed using an LSR II flow cytometer (BD Biosciences) and FlowJo software (Treestar) was used for analysis.
BTK is a complex protein with adapter as well as kinase functions that have independent effects on various aspects of B cell development and function. […] Flow cytometry analysis of freshly isolated splenocytes was used to identify B cell subsets as in FIG. 3.

[1] = Example 3: prediabetic individual administered ibrutinib and cyclosporine A; type: in vivo; conditions: individual with impaired fasting glycemia and impaired glucose tolerance; ibrutinib administered with cyclosporine A
Description: An individual presents with impaired fasting glycemia and impaired glucose tolerance. The individual is determined to be prediabetic.

[2] = spleen, Ibrutinib vs. placebo chow, 125Tg/NOD mice

C=CC(=O)N1CCC[C@@H](n2nc(-c3ccc(Oc4ccccc4)cc3)c3c(N)ncnc32)C1 [Ibrutinib, (R)-1-(3-(4-amino-3-(4-phenoxyphenyl)-1H-pyrazolo[3,4-d]pyrimidin-1-yl)piperidin-1-yl)prop-2-en-1-one]
trafficking of anti-insulin B lymphocytes to pancreatic draining lymph nodes or pancreas (anti-insulin B cells; 125Tg/NOD mice treated with Ibrutinib): does not block their trafficking to pancreatic draining lymph nodes or pancreas | non-B lymphocyte numbers in spleen (anti-insulin B cells; 125Tg/NOD mice, Ibrutinib chow 5-10 weeks, 38 mg/kg per day, placebo 28.6±8.3, no difference): 25.1±8.5 ×10^6 | number of B lymphocytes (B220+ IgM+ live lymphocytes) in spleen (anti-insulin B cells; 125Tg/NOD mice, Ibrutinib chow 5-10 weeks, average 38 mg/kg per day, placebo 22.2±5.8, p<0.001): 10.1±2.8 ×10^6 | T2 B cell subset numbers in the spleen (anti-insulin B cells; 125Tg/NOD mice, Ibrutinib chow 5-10 weeks, placebo 17±3, p=0.51, no difference): 49±76 ×10^4 | pre-marginal zone B cell numbers in the spleen (anti-insulin B cells; 125Tg/NOD mice, Ibrutinib chow 5-10 weeks, placebo 43±6, p=0.0015): 17±5 ×10^4 | follicular B cell numbers in the spleen (anti-insulin B cells; 125Tg/NOD mice, Ibrutinib chow 5-10 weeks, placebo 345±38, p<0.001): 41±37 ×10^4 | marginal zone B cell numbers in the spleen (anti-insulin B cells; 125Tg/NOD mice, Ibrutinib chow 5-10 weeks, placebo 1283±217, p=0.002): 443±164 ×10^4 | number of B cells in the pancreas (anti-insulin B cells; 125Tg/NOD mice, Ibrutinib chow, placebo 5.2±7.7, p=0.36, no significant difference): 0.66±0.80 ×10^4 | number of B cells in the pancreatic draining lymph nodes (anti-insulin B cells; 125Tg/NOD mice, Ibrutinib chow, placebo 21±8, p=0.49, no significant difference): 26±9 ×10^4 | reduction in follicular B cell numbers (anti-insulin B cells; [2]): 88% | reduction in marginal zone B cell numbers (anti-insulin B cells; [2]): 65% | reduction in pre-marginal zone B cell numbers (anti-insulin B cells; [2]): 60% | development of Type 1 Diabetes [1]: does not develop Type 1 Diabetes
